{"source": "patent US20090247495A1", "about": "“CU[…] AND USES THEREOF” (priority 2007, published 2009)", "key": {"K562 cells": {"test_system": "K562 cells", "test": "Flow cytometry for apoptosis analysis (Annexin V / PI), K562", "type": "cell-based, human", "conditions": "80 nM, 48 hours", "procedure": "10^5/ml K562 cells were treated with cucurbitacin B in the presence of complete medium containing 10% FBS for 48 hours. The changes in cell morphology were visualized using Leica DMIL (Leica Microsystem). Cells were harvested and rinsed twice with ice-cold PBS (pH7.4) and a total 2.5×10^5 K562 cells were stained with 10 μl Annexin V and 10 μl propidium iodide in 100 μl 1×binding buffer for 15 minutes in dark and then subjected to apoptosis analysis with FACSCalibar Flow cytometer system (FACS Calibur BD Flow Cytometer). • 6.1.5 Flow Cytometry for Cell Cycle Analysis\nAppropriate number of cell density were seeded into T-25 culture flask and treated with different doses of cucurbitacin B for 2 days. The apoptotic effects of cucurbitacin B on the cells were detected using Flow Cytometry analysis after stained with Anx.V and PI for 15 minutes. […] Cucuribitacin B induced apoptosis in a dose dependent manner, among them, 80 nM induced the highest apoptotic effect in K562 cells, with over 50% cells in apoptotic population and 10% cells in the necrotic population (late apoptotic and necrotic phase). The effect of cucurbitacin B on apoptosis and cell cycle profile in K562 cells were analyzed using flow cytometry, as depicted in FIG. 3."}, "Erk1/2": {"test_system": "Erk1/2", "test": "Western blot of Erk1/2 in HepG2, HT29 and MCF-7 cells", "type": "cell-based, human", "procedure": "The human cancer cells line were serum starved for 18 hours prior to CuB/CuD treatment. Cells were incubated in a 6-well plate filled with 5 ml growth medium (RPMI with 0.2% FBS and 1% PS) at the cell density of 1×10^5 cells/ml, in the presence or absence of two different dosages of CuB/CuD for various time intervals. The drug treatment was terminated by centrifugation at 1,500 rpm for 5 minutes and the cells were rinsed twice with phosphate-buffered saline and lysed at 4° C. in a lysis buffer containing 50 mM Tris-HCl, pH7.5, 100 mM NaCl, 5 mM EDTA, 40 mM NaP2O7, 1% Triton X-100, 1 mM dithiothreitol, 200 μM Na3VO4, 100 uM phenylmethysufonyl fluoride, 2 μg/ml leupeptin, 4 μg/ml aprotinin and 0.7 μg/ml pepstatin. The insoluble protein lysate were removed by centrifugation for 10 minutes at 13,000 rpm. Fifteen micrograms of protein lysate was resolved using 10% SDS-polyacryamide gel electrophoresis (PAGE) and then subjected to western blot anaylsis. Western blots were performed with anti-Stat3, anti-Erk1/2 and anti-hsp27 antibodies specific for phosphor- and total Stat3, Erk and hsp27 proteins. The protein bands were then visualized with the Enhanced Chemiluminescence Plus (ECL Plus) detection system (Amersham). • 6.2.8.1 Inhibition Effect Cucurbitacin B/Cucurbitacin D on Stat3 Activation in HepG2 and HT29 Cells\nCells were incubated either with CuB or CuD (25 ug/ml or the dosage of IC50) for various time intervals (5, 10 or 30 mins, 1 or 4 hours). The Stat3 activation was detected by western blot."}, "HepG2": {"test_system": "HepG2", "test": "Hollow fiber assay, HepG2", "type": "in vivo, nude mice", "conditions": "0.2 mg/kg, i.p., s.c. and p.o., up to 14 days", "procedure": "The hollow fiber assay (HFA) was developed by the NCI as a high-throughput, preliminary in vivo screening assay for the evaluation of anti-cancer agents. Human liver cancer cell lines HepG2 and HepG2-resistant (HepG2-R) were in vitro cultured inside hollow fibers for a short term (48 hours), followed by in vivo implantation at s.c. sites of the nude mice. Mice were treated with negative control (0.5% CMC), positive control (10 mg/kg 5-Fluorouracil) and cucurbitacin B (0.2 mg/kg) for up to 14 days. Then the fibers were excised and analyzed for cell viability by MTT assay. The efficacies of cucurbitacin B against HepG2 and HepG2-R were expressed as the percentage of the results obtained in the negative control group."}, "Panc 02.13": {"test_system": "Panc 02.13", "test": "MTT cell cytotoxicity assay, Panc 02.13", "type": "cell-based", "conditions": "Homo sapiens, 48 hours", "procedure": "Three human pancreatic cancer cell lines (Panc-1, Panc 02.13, Panc 10.05) were purchased from American Type Culture Collection (ATCC, Manassas, Va., USA). Panc 02.13 and Panc 10.05 were grown in RPMI 1640 medium supplemented with 15% FBS, 4.5 g/L glucose, 10 mM HEPES, and 1.0 mM sodium pyruvate and 10 Units/ml human insulin; while PANC-1 was grown in Dulbecco's modified Eagle's medium supplemented with 10% FBS. They were maintained in a humidified 5% CO2 atmosphere at 37° C. and the culture medium was changed once in 2 days.\nThe cytotoxic effect of CuB on these three cancer cell lines were determined using MTT (3-[4,5-dimethylthiazol-2-yl]-2,5-diphenyl tetrazolium bromide) labeled cell cytotoxicity assay. A total of 1×10^4 cells were seeded into a 96-well plate for 24 hours prior to cucurbitacin B (CuB) treatment. They were then treated with different dosages of CuB for 48 hours. After the treatment, 20 μl of MTT (5 mg/ml) was added to each well and incubated for 4 hrs. Then the medium was discarded and 100 μl of dimethyl sulfoxide was added. The absorbance at 570 nm was then measured by FLUOstar OPTIMA equipment (BMG, LABTECH GmbH, Germany). The percentage of inhibition against different dosages of CuB were plotted using the Prism software and the 50% inhibition concentration (IC50) were obtained. […]"}, "Jak, Stat3 and c-raf": {"test_system": "Jak, Stat3 and c-raf", "test": "Western blot of phosphorylated Jak, Stat3 and c-raf in Panc-1 cells", "type": "cell-based, human", "conditions": "IC50 dosage (0.8 uM)", "description": "The drug treatment was terminated and the cells were rinsed twice with phosphate-buffered saline and lysed at 4° C. in a lysis buffer containing 50 mM Tris-HCl, pH7.5, 100 mM NaCl, 5 mM EDTA, 40 mM NaP2O7, 1% Triton X-100, 1 mM dithiothreitol, 200 μM Na3VO4, 100 uM phenylmethysufonyl fluoride, 2 μg/ml leupeptin, 4 μg/ml aprotinin and 0.7 μg/ml pepstatin. The insoluble protein lysate were removed by centrifugation for 10 minutes at 12,000 rpm. Fifty micrograms of protein lysate was resolved using 10% SDS-polyacryamide gel electrophoresis (PAGE) and then subjected to western blot anaylsis. Western blots were performed with antibodies specific for phosphor- and Jak, Stat3 and c-raf proteins. […] The protein bands were then visualized with the Enhanced Chemiluminescence Plus (ECL Plus) detection system (Amersham).\nThe proteins activation was detected by western blot.\nCell lysate (50 μg) of each sample was separated in 10% SDS-PAGE followed by immuno-blotting with anti-jak1 anti-jak2, anti-jak3, anti-Stat3 and c-raf antibodies to detect the phosphorylated form of jak1, jak2, jak3, Stat3 and c-raf."}}}
{"smiles": "CC(=O)OC(C)(C)/C=C/C(=O)[C@](C)(O)C1[C@H](O)C[C@@]2(C)C3CC=C4C(C[C@H](O)C(=O)C4(C)C)[C@]3(C)C(=O)C[C@]12C", "note": "(stereo partly drawn) [cucurbitacin B]", "values": [{"measurement": "cells in apoptotic population", "setting": "K562 cells", "result": "over 50%"}, {"measurement": "cells in the necrotic population (late apoptotic and necrotic phase)", "setting": "K562 cells", "result": 10, "unit": "%"}, {"measurement": "expression of Erk1/2", "setting": "Erk1/2; HT29, 5 minutes of treatment", "result": "up-regulated the expression of Erk1/2 significantly"}, {"measurement": "expression of Erk1/2", "setting": "Erk1/2; HepG2, 30 minutes of treatment", "result": "up-regulated the expression of Erk1/2 significantly"}, {"measurement": "Erk activation", "setting": "Erk1/2; MCF-7 cells, 5 minutes", "result": "significant Erk activation"}, {"measurement": "cell growth in hollow fibers", "setting": "HepG2", "result": "potently inhibited"}, {"measurement": "GI50", "setting": "Panc 02.13", "result": 5.13, "unit": "µM"}, {"measurement": "Jak and c-raf activation", "setting": "Jak, Stat3 and c-raf; 4 hours", "result": "inhibited significantly"}, {"measurement": "Stat3 activation", "setting": "Jak, Stat3 and c-raf; 24 hours", "result": "inhibited significantly"}]}
